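Growth conditions: 96-well plates. Treatment: test compound, 48 hours, 5 concentrations. Analysis: linear interpolation between bracketing concentrations; unreached endpoints set to highest concentration. Abbreviation: GI50, concentration required for 50% inhibition of growth.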 Active and inactive are the calls of the source. Cut-off read from the data, not from the text of the source: active = GI50 up to about 1.1 µM and inactive = higher.
Assays:
Test in all cases: NCI-60 cell line screen, 48 h
A498 = tested on: A498
A549 = tested on: A549
ACHN = tested on: ACHN
HCC 2998 = tested on: HCC 2998
HCT-15 = tested on: HCT-15
HL-60 = tested on: HL-60
HOP-92 = tested on: HOP-92
Hs-578T = tested on: Hs-578T
NCI-H23 = tested on: NCI-H23
OVCAR-3 = tested on: OVCAR-3
OVCAR-8 = tested on: OVCAR-8
PC-3 = tested on: PC-3
SF-268 = tested on: SF-268
SF-295 = tested on: SF-295
SF-539 = tested on: SF-539
SK-OV-3 = tested on: SK-OV-3
U-251 = tested on: U-251
UACC-62 = tested on: UACC-62
UO-31 = tested on: UO-31

Row | SMILES | GI50 (A498) | GI50 (A549) | GI50 (ACHN) | GI50 (HCC 2998) | GI50 (HCT-15) | GI50 (HL-60) | GI50 (HOP-92) | GI50 (Hs-578T) | GI50 (NCI-H23) | GI50 (OVCAR-3) | GI50 (OVCAR-8) | GI50 (PC-3) | GI50 (SF-268) | GI50 (SF-295) | GI50 (SF-539) | GI50 (SK-OV-3) | GI50 (U-251) | GI50 (UACC-62) | GI50 (UO-31)
1 | COc1cc(-c2[o+]c3cc(O)cc(OC4OC(CO)C(O)C(O)C4O)c3cc2OC2OC(CO)C(O)C(O)C2O)cc(OC)c1O (centres undefined) | > 100 µM (inactive) | > 100 µM (inactive) | > 100 µM (inactive) | > 100 µM (inactive) | > 100 µM | 21.1 µM (inactive) | > 100 µM (inactive) | > 100 µM (inactive) | > 100 µM (inactive) | > 100 µM (inactive) | > 100 µM (inactive) | > 100 µM (inactive) | > 100 µM (inactive) | > 100 µM (inactive) | > 100 µM (inactive) | > 100 µM (inactive) | > 100 µM (inactive) | > 100 µM (inactive) | > 100 µM (inactive)
2 | CC(=O)NCCC1CN(C(=O)/C=C\I)c2ccccc21 (centres undefined) | 18.4 µM (inactive) | 13.8 µM (inactive) | 14.5 µM (inactive) | 15.2 µM (inactive) | 7.71 µM | 2.7 µM (inactive) | 21.7 µM (inactive) | 27.2 µM (inactive) | 16.4 µM (inactive) | 15 µM (inactive) | 16.2 µM (inactive) | 11.7 µM (inactive) | 15.5 µM (inactive) | 15.3 µM (inactive) | 5.32 µM (inactive) | 20 µM (inactive) | 12.9 µM (inactive) | 13 µM (inactive) | 7.69 µM (inactive)
3 | CCOC(=O)c1c(N2CCCC2)[nH]c(=O)c(C(c2ccco2)c2c(O)c(C(=O)OCC)c(N3CCCC3)[nH]c2=O)c1O | > 100 µM (inactive) | > 100 µM (inactive) | 95.5 µM (inactive) | > 100 µM (inactive) | > 100 µM | > 100 µM (inactive) | > 100 µM (inactive) | 27.9 µM (inactive) | > 100 µM (inactive) | > 100 µM (inactive) | 92.9 µM (inactive) | > 100 µM (inactive) | 85.3 µM (inactive) | 40.3 µM (inactive) | > 100 µM (inactive) | > 100 µM (inactive) | 73.8 µM (inactive) | > 100 µM (inactive) | > 100 µM (inactive)
4 | Cc1ccc(S(=O)(=O)N2CC(CCN)c3ccccc32)cc1 (centres undefined) | 10.7 µM (inactive) | 9.51 µM (inactive) | 8.41 µM (inactive) | 4.76 µM (inactive) | 4.05 µM | > 100 µM (inactive) | 4.19 µM (inactive) | 5.62 µM (inactive) | 6.38 µM (inactive) | 3.36 µM (inactive) | 3.59 µM (inactive) | 3.64 µM (inactive) | 5.31 µM (inactive) | 4.56 µM (inactive) | 3.17 µM (inactive) | 5.5 µM (inactive) | 3.72 µM (inactive) | 3.68 µM (inactive) | 4.61 µM (inactive)
5 | CCOP(=O)(OCC)/C(C#N)=C/c1cnc(C)[nH]1 | > 100 µM (inactive) | > 100 µM (inactive) | > 100 µM (inactive) | > 100 µM (inactive) | > 100 µM | > 100 µM (inactive) | > 100 µM (inactive) | > 100 µM (inactive) | > 100 µM (inactive) | > 100 µM (inactive) | > 100 µM (inactive) | > 100 µM (inactive) | > 100 µM (inactive) | > 100 µM (inactive) | > 100 µM (inactive) | 20.5 µM (inactive) | > 100 µM (inactive) | > 100 µM (inactive) | > 100 µM (inactive)
6 | Cc1ccc(/N=N\c2c(O)c(S(=O)(=O)O)cc3cc(S(=O)(=O)O)ccc23)c(C)c1 | > 100 µM (inactive) | > 100 µM (inactive) | > 100 µM (inactive) | > 100 µM (inactive) | > 100 µM | > 100 µM (inactive) | > 100 µM (inactive) | > 100 µM (inactive) | > 100 µM (inactive) | > 100 µM (inactive) | > 100 µM (inactive) | > 100 µM (inactive) | > 100 µM (inactive) | > 100 µM (inactive) | > 100 µM (inactive) | > 100 µM (inactive) | > 100 µM (inactive) | > 100 µM (inactive) | > 100 µM (inactive)
